Test results from patent US8541590B2, “Proteasome inhibitors and processes for their preparation, purification and use” (Cephalon, Inc., priority 2009, dated 2013).
Marks after values point to notes of the source that are not given here.

Columns and labels:
[1] = Storage stability of boronic ester of Formula X, bulk solid state drug substance (Example 9); format: physicochemical
Procedure: Bulk solid state drug substance was put in polyethylene (PE) double bag in high-density polyethylene (HDPE) containers and the containers were stored under three conditions: (a) 4° C., (b) 25° C./60% relative humidity (RH), and (c) 40° C./75% RH.
6-(2S,3R)—N-[(1R)-1-(1,3,6,2-dioxazaborocan-2-yl)-3-methylbutyl}-3-hydroxy-2-{(6-phenylpyridin-2-yl)formamido]butanamide converts to [(1R)-1-[[(2S,3R)-3-Hydroxy-2-[[(6-phenylpyridin-2-yl)carbonyl]amino]-1-oxobutyl]amino]-3-methylbutyl]boronic acid (i.e., Compound 1) as soon as it is in the presence of an aqueous phase. Therefore, HPLC analysis of purity was of the [(1R)-1-[[(2S,3R)-3-Hydroxy-2-[[(6-phenylpyridin-2-yl)carbonyl]amino]-1-oxobutyl]amino]-3-methylbutyl]boronic acid hydrolysis product. Stability was tested at time zero (T0), and after storage for one month (1M), six months (6M) and (except for the 40° C./75% RH conditions) one year (12M).

[2] = Comparative storage stability of Compound 1, Batches A, B, C (Example 9A); format: physicochemical
Procedure: Three (3) separate batches of Compound 1 were tested for storage stability. The batches are identified as Batch A, Batch B, and Batch C below. Bulk solid state drug substance was put in polyethylene (PE) double bag in high-density polyethylene (HDPE) containers and the containers were stored under the indicated conditions.

[3] = Occupational exposure limit (OEL)
[4] = Comparative bioavailability of bortezomib and boronic ester of Formula XI in rat, Example 10 (i.v.; p.o. in saline); format: in vivo, male Sprague Dawley rats; conditions: male, Sprague Dawley, iv, bortezomib in plasma, 0.8 mg/kg, mean ± SEM
Procedure: Three adult male Sprague Dawley rats were used in each treatment group. The rats were fasted overnight prior to oral dose administration. Intravenous administration was via the lateral tail vein and oral doses were administered by gavage. The compound was administered iv in a vehicle of 3% DMSO:30% Solutol:67% phosphate buffered saline. Oral dosing was in phosphate buffered saline.
For blood collection, each rat (unanesthetized) was placed in a clear Plexiglas® restraining tube, and blood samples (approximately 0.25 mL) were drawn from a lateral tail vein into heparinized collection tubes at predetermined sampling times (0.083, 0.25, 0.5, 1, 2, 4, and 6 hours post dose). No pre-dose samples were obtained. The exception to this procedure was the last sampling time in which the animals were sacrificed by decapitation and trunk blood was obtained rather than blood via a tail vein. The blood samples were placed on wet ice until centrifuged to separate plasma. The plasma fraction was transferred into clean dry tubes, frozen on dry ice and stored at approximately −20° C. pending analysis.
Plasma was prepared for high performance liquid chromatography (HPLC)/mass spectrometric analysis according to standard protocol following protein precipitation with acetonitrile containing an internal standard. The plasma samples were then analyzed for both bortezomib and alprenolol (internal standard) via HPLC coupled with tandem mass spectrometry.
The plasma concentration data for all rats were entered into Excel spreadsheets in preparation for pharmacokinetic analysis. Pharmacokinetic parameters for bortezomib were estimated for each rat by non-compartmental analysis (Gibaldi M, Perrier D. Pharmacokinetics, 2nd edition, Marcel Dekker, New York, Chapter 11, 1982) of the plasma concentration versus time data using WinNonlin software (Professional Version 4.1, Pharsight Corporation, Palo Alto, Calif., 1997).
The maximum plasma concentration (Cmax) was the highest observed plasma concentration after an oral dose; tmax was the corresponding time when Cmax was observed. The terminal rate constant for elimination from plasma (β) was estimated by linear regression of the terminal portion of the semi-logarithmic plasma concentration versus time curve. The apparent terminal half-life (t1/2) was calculated as 0.693 divided by β. The area under the plasma concentration versus time curve from time zero to the time of the last measurable concentration (AUC0-t) after a single dose was determined by the linear trapezoidal rule. The area from zero to infinity (AUC0-∞) was calculated as the sum of AUC0-t and the area extrapolated from the last measurable concentration to infinity (Clast/β). Concentrations pre dose were all assumed to be zero for the purpose of calculation of the AUC. Oral bioavailability was determined by dividing the dose normalized oral AUC0-∞ by the AUC0-∞ from iv dosing and multiplying by 100 to express the ratio as a percent.

[5] = Batch B, 5° C./ambient RH, 1 Month
[6] = Batch B, 5° C./ambient RH, 3 Month
[7] = Batch B, 5° C./ambient RH, 6 Month
[8] = Batch C, 5° C./ambient RH, 1 Month
[9] = Batch C, 5° C./ambient RH, 3 Month
[10] = Batch C, 5° C./ambient RH, 6 Month
[11] = Batch C, 5° C./ambient RH, 12 Month

6-(2S,3R)—N-[(1R)-1-(1,3,6,2-dioxazaborocan-2-yl)-3-methylbutyl}-3-hydroxy-2-{(6-phenylpyridin-2-yl)formamido]butanamide [boronic ester of Formula X]
Appearance ([1]; 4° C., 1 M): White to off-
Appearance ([1]; 4° C., 6 M): White to off-
Appearance ([1]; 4° C., 12 M): White to off-
Chemical purity (%) ([1]; 4° C./ambient RH, 1 M): 99.8%
Impurity by HPLC (%) RRT = 0.49 ([1]; 4° C./ambient RH, 1 M): 0.06%
Impurity by HPLC (%) RRT = 1.18 ([1]; 4° C./ambient RH, 1 M): 0.17%
Chemical purity (%) ([1]; 4° C./ambient RH, 6 M): 99.9%
Chemical purity (%) ([1]; 4° C./ambient RH, 12 M): 99.9%
Impurity by HPLC (%) RRT = 1.18 ([1]; 4° C./ambient RH, 12 M): 0.07%
Appearance ([1]; 25° C./60% RH, 1 M): White to off-
Chemical purity (%) ([1]; 25° C./60% RH, 1 M): 99.6%
Impurity by HPLC (%) RRT = 0.49 ([1]; 25° C./60% RH, 1 M): 0.09%
Impurity by HPLC (%) RRT = 1.18 ([1]; 25° C./60% RH, 1 M): 0.32%
Appearance ([1]; 25° C./60% RH, 6 M): White to off-
Chemical purity (%) ([1]; 25° C./60% RH, 6 M): 99.8%
Impurity by HPLC (%) RRT = 0.49 ([1]; 25° C./60% RH, 6 M): 0.08%
Impurity by HPLC (%) RRT = 1.18 ([1]; 25° C./60% RH, 6 M): 0.06%
Appearance ([1]; 25° C./60% RH, 12 M): White to off-
Chemical purity (%) ([1]; 25° C./60% RH, 12 M): 99.9%
Impurity by HPLC (%) RRT = 0.49 ([1]; 25° C./60% RH, 12 M): 0.07%
Impurity by HPLC (%) RRT = 1.18 ([1]; 25° C./60% RH, 12 M): 0.08%
Appearance ([1]; 40° C./75% RH, 1 M): White to off-
Chemical purity (%) ([1]; 40° C./75% RH, 1 M): 99.7%
Impurity by HPLC (%) RRT = 0.49 ([1]; 40° C./75% RH, 1 M): 0.10%
Impurity by HPLC (%) RRT = 1.18 ([1]; 40° C./75% RH, 1 M): 0.18%
Appearance ([1]; 40° C./75% RH, 6 M): White to off-
Chemical purity (%) ([1]; 40° C./75% RH, 6 M): 99.8%
Impurity by HPLC (%) RRT = 0.49 ([1]; 40° C./75% RH, 6 M): 0.10%
Impurity by HPLC (%) RRT = 1.18 ([1]; 40° C./75% RH, 6 M): 0.11%
Appearance ([1]; T0): White to off-
Impurity by HPLC (%) RRT = 1.18 ([1]; T0): 0.50%
Chemical purity (%) ([1]; T0, HPLC of Compound 1 hydrolysis product): 99.5%

CC(C)C[C@H](NC(=O)[C@@H](NC(=O)c1cccc(-c2ccccc2)n1)[C@@H](C)O)B(O)O [Compound 1, [(1R)-1-[[(2S,3R)-3-hydroxy-2-[6-phenyl-pyridine-2-carbonyl)amino]-1-oxobutyl]amino]-3-methylbutylboronic acid]
HPLC Purity (%) ([2]; Batch A, 4° C./ambient RH, 3 M): 94.5%
Appearance ([2]; Batch A, 4° C./ambient RH, 3 Months): White to off-
HPLC Purity (%) ([2]; Batch A, 4° C./ambient RH, 6 M): 94.1%
Appearance ([2]; Batch A, 4° C./ambient RH, 6 Months): White to off-
HPLC Purity (%) ([2]; Batch A, 25° C./60% RH, 3 M): 94.4%
Appearance ([2]; Batch A, 25° C./60% RH, 3 Months): White to off-
HPLC Purity (%) ([2]; Batch A, 25° C./60% RH, 6 M): 94.1%
Appearance ([2]; Batch A, 25° C./60% RH, 6 Months): White to off-
HPLC Purity (%) ([2]; Batch A, 40° C./75% RH, 3 M): 93.2%
Appearance ([2]; Batch A, 40° C./75% RH, 3 Months): White to off-
HPLC Purity (%) ([2]; Batch A, 40° C./75% RH, 6 M): 88.7%
Appearance ([2]; Batch A, 40° C./75% RH, 6 Months): White to off-
Appearance ([2]; Batch A, T0): White to off-
HPLC Purity (%) ([2]; Batch A, T0 (estimated)): 95.3* %
Appearance [2, 5]: White powder
Assay by HPLC (anhydrous) (%) [2, 5]: 97.1%
Assay by HPLC (as-is) (%) [2, 5]: 90.6%
Total Impurities (%) [2, 5]: 3.0%
Water Content (%) [2, 5]: 6.0%
Appearance [2, 6]: White
Assay by HPLC (anhydrous) (%) [2, 6]: 94.0%
Assay by HPLC (as-is) (%) [2, 6]: 87.5%
Total Impurities (%) [2, 6]: 5.9%
Water Content (%) [2, 6]: 6.1%
Appearance [2, 7]: White powder
Assay by HPLC (anhydrous) (%) [2, 7]: 93.5%
Assay by HPLC (as-is) (%) [2, 7]: 85.1%
Total Impurities (%) [2, 7]: 7.3%
Water Content (%) [2, 7]: 8.2%
Appearance ([2]; Batch B, 5° C./ambient RH, T0): White
Assay by HPLC (anhydrous) (%) ([2]; Batch B, 5° C./ambient RH, T0): 101.7%
Assay by HPLC (as-is) (%) ([2]; Batch B, 5° C./ambient RH, T0): 94.4%
Total Impurities (%) ([2]; Batch B, 5° C./ambient RH, T0): 0.6%
Water Content (%) ([2]; Batch B, 5° C./ambient RH, T0): 6.5%
Appearance [2, 8]: White to yellow
Assay by HPLC (anhydrous) (%) [2, 8]: 97.0%
Assay by HPLC (as-is) (%) [2, 8]: 91.4%
HPLC Purity (%) [2, 8]: 97.2%
Water Content (%) [2, 8]: 4.59%
Appearance [2, 9]: White to yellow
Assay by HPLC (anhydrous) (%) [2, 9]: 102.4%
Assay by HPLC (as-is) (%) [2, 9]: 94.6%
HPLC Purity (%) [2, 9]: 96.2%
Water Content (%) [2, 9]: 6.48%
Appearance [2, 10]: Off-white
Assay by HPLC (anhydrous) (%) [2, 10]: 99.9%
Assay by HPLC (as-is) (%) [2, 10]: 91.0%
HPLC Purity (%) [2, 10]: 96.3%
Water Content (%) [2, 10]: 7.74%
Appearance [2, 11]: Off-white
Assay by HPLC (anhydrous) (%) [2, 11]: 95.9%
Assay by HPLC (as-is) (%) [2, 11]: 87.0%
HPLC Purity (%) [2, 11]: 96.2%
Water Content (%) [2, 11]: 8.16%
Appearance ([2]; Batch C, 5° C./ambient RH, T0): Yellowish
Assay by HPLC (anhydrous) (%) ([2]; Batch C, 5° C./ambient RH, T0): 98.1%
Assay by HPLC (as-is) (%) ([2]; Batch C, 5° C./ambient RH, T0): 92.9%
HPLC Purity (%) ([2]; Batch C, 5° C./ambient RH, T0): 98.2%
Water Content (%) ([2]; Batch C, 5° C./ambient RH, T0): 4.16%
increase of total impurities ([2]; within six months, refrigerated conditions): more than 10 fold
occupational exposure limit (OEL) [3]: 0.3 μg/m^3

CC(C)C[C@H](NC(=O)[C@H](Cc1ccccc1)NC(=O)c1cnccn1)B(O)O [bortezomib, [(1R)-3-methyl-1-({(2S)-3-phenyl-2-[(pyrazin-2-ylcarbonyl)amino]propanoyl}amino)butyl]boronic acid]
AUC(0-inf) ([4]; n = 3): 472 ± 127 ng·h/mL
AUC(0-t) ([4]; n = 3): 459 ± 127 ng·h/mL
Vd ([4]; n = 3): 2.4 ± 0.8 L/kg
clearance ([4]; n = 3): 34 ± 11 mL/min/kg
half-life ([4]; n = 3, read-out: t1/2, h (converted)): 48 ± 6 min
